Measurements as given in ChEMBL document CHEMBL1146154, “Inhibitors of Plasmepsin II-potential antimalarial agents” (Bioorg Med Chem Lett, 2006).

Key:
Plasmepsin II = Plasmepsin II (Plasmodium falciparum, UniProt P46925); assay: Inhibition of PM2 by FRET assay
Plasmodium falciparum = assay: Antimalarial activity against Plasmodium falciparum infected human RBC; format: functional, organism-based

Chain of Plasmepsin II (P46925 whole entry): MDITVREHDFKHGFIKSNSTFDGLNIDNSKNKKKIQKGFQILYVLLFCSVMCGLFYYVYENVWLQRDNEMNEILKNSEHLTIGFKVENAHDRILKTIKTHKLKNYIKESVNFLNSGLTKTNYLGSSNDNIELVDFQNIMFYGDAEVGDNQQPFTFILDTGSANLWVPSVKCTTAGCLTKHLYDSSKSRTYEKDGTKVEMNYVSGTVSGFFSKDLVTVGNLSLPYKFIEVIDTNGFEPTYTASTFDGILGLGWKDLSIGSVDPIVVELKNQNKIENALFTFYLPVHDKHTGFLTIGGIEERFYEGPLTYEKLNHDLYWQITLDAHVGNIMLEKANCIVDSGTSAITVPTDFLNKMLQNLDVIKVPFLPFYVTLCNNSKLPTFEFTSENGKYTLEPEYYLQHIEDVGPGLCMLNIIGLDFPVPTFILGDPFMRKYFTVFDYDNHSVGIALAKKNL

SMILES | IC50 (Plasmepsin II) | IC50 (Plasmodium falciparum)
CCCCCc1ccc(C(=O)N(CCN(CCCC)CCCC)Cc2ccc(N(CC)CC)cc2)cc1 | 1490 nM | 550 nM
CCCCCc1ccc(C(=O)N(CCN(CCCC)CCCC)Cc2ccc(-c3cccnc3)cn2)cc1 | 5270 nM | 465 nM
CCCCCc1ccc(C(=O)N(CCN(CCCC)CCCC)Cc2ccc(-c3cccnc3)nc2)cc1 | 587 nM | 458 nM
CCCCCc1ccc(C(=O)N(CCN(CCCC)CCCC)Cc2ccc(N3CCN(C)CC3)cc2)cc1 | 2550 nM | 431 nM
CCCCCc1ccc(C(=O)N(CCN(CCCC)CCCC)Cc2ccc(-c3cncnc3)cn2)cc1 | 8530 nM | 639 nM
CCCCCc1ccc(C(=O)N(CCN2CCOCC2)Cc2ccc(-c3ccc4c(c3)OCO4)cc2)cc1 | 2900 nM | –
CCCCCc1ccc(C(=O)N(CCN(CCCC)CCCC)Cc2ccc(-c3cncnc3)cc2)cc1 | 531 nM | 2230 nM
CCCCCc1ccc(C(=O)N(CCCc2ccccc2)C2CCN(Cc3ccccc3)CC2)cc1 | 1700 nM | –
CCCCCc1ccc(C(=O)N(CCN(CCCC)CCCC)Cc2ccc(-c3ccc4c(c3)OCO4)cn2)cc1 | 1910 nM | 698 nM
CCCCCc1ccc(C(=O)N(CCN(CCCC)CCCC)Cc2ccc(-c3ccccn3)cc2)cc1 | – | 1730 nM
CCCCCc1ccc(C(=O)N(CCN(C(C)C)C(C)C)Cc2ccc(-c3ccc4c(c3)OCO4)cc2)cc1 | 1500 nM | –
CCCCCc1ccc(C(=O)N(CCN(CCCC)CCCC)Cc2ccc(N3CCN(Cc4ccccc4)CC3)cc2)cc1 | 646 nM | 790 nM
CCCCCc1ccc(C(=O)N(CCN(CCCC)CCCC)Cc2ccc(-c3ccncc3)nc2)cc1 | 642 nM | 457 nM
CCCCCc1ccc(C(=O)N(CCN(CC)CC)Cc2ccc(-c3ccc4c(c3)OCO4)cc2)cc1 | 1520 nM | –
CCCCCc1ccc(C(=O)N(CCN(CCCC)CCCC)Cc2ccc(-c3ccccc3)nc2)cc1 | 589 nM | 609 nM
CCCCCc1ccc(C(=O)N(CCN(CCCC)CCCC)Cc2ccc(N(C)c3ccccc3)cc2)cc1 | 574 nM | 617 nM
CCCCCc1ccc(C(=O)N(CCN(CCCC)CCCC)Cc2ccc(Nc3ccncc3)cc2)cc1 | 1820 nM | 207 nM
CCCCCc1ccc(C(=O)N(CCN(CCCC)CCCC)Cc2ccc(-c3ccncc3)cn2)cc1 | 4550 nM | 630 nM
CCCCCc1ccc(C(=O)N(CCN(CCCC)CCCC)Cc2ccc(N(C)c3ccncc3)cc2)cc1 | 3010 nM | 453 nM
CCCCCc1ccc(C(=O)N(CCN(CCCC)CCCC)Cc2ccc(-c3ccccn3)nc2)cc1 | 736 nM | 411 nM
CCCCCc1ccc(C(=O)N(CCN(CCCC)CCCC)Cc2ccc(-c3ccccc3)cn2)cc1 | 2350 nM | 693 nM
CCCCCc1ccc(C(=O)N(CCN(CCCC)CCCC)Cc2ccc(-c3cncnc3)nc2)cc1 | 2230 nM | 560 nM
CCCCCc1ccc(C(=O)N(CCN(CCCC)CCCC)Cc2ccc(-n3ccc4ccccc43)cc2)cc1 | 670 nM | 739 nM

Now from value to compound:

IC50 (Plasmepsin II) | IC50 (Plasmodium falciparum) | SMILES
74 nM | 885 nM | CCCCCc1ccc(C(=O)N(CCN(CCCC)CCCC)Cc2ccc(-c3ccc(CC(=O)N4CCOCC4)cc3)cc2)cc1
429 nM | 686 nM | CCCCCc1ccc(C(=O)N(CCN(CCCC)CCCC)Cc2ccc(NCc3ccccc3)cc2)cc1
188 nM | 1760 nM | CCCCCc1ccc(C(=O)N(CCN(CCCC)CCCC)Cc2ccc(N3CCSCC3)cc2)cc1
77 nM | 859 nM | CCCCCc1ccc(C(=O)N(CCN(CCCC)CCCC)Cc2ccc(-c3ccc(C(=O)N(C)C)cc3)cc2)cc1
56 nM | 751 nM | CCCCCc1ccc(C(=O)N(CCN(CCCC)CCCC)Cc2ccc(-c3ccc(C(=O)N4CCSCC4)cc3)cc2)cc1
243 nM | 605 nM | CCCCCc1ccc(C(=O)N(CCN(CCCC)CCCC)Cc2ccc(NC(=O)c3cnccn3)cc2)cc1
439 nM | – | CCCCCc1ccc(C(=O)N(CCN(CC)CCN(CC)CC)Cc2ccc(-c3ccc4c(c3)OCO4)cc2)cc1
183 nM | 2470 nM | CCCCCc1ccc(C(=O)N(CCN(CCCC)CCCC)Cc2ccc(-c3ccc(CC(=O)OC)cc3)cc2)cc1
437 nM | 677 nM | CCCCCc1ccc(C(=O)N(CCN(CCCC)CCCC)Cc2ccc(-c3ccc4c(c3)OCO4)nc2)cc1
240 nM | 825 nM | CCCCCc1ccc(C(=O)N(CCN(CCCC)CCCC)Cc2ccc(-n3cccc3)cc2)cc1
334 nM | – | CCCCCc1ccc(C(=O)N(CCN(CCO)Cc2ccccc2)Cc2ccc(-c3ccc4c(c3)OCO4)cc2)cc1
531 nM | – | CCCCCc1ccc(C(=O)N(CCN(CCC)CCC)Cc2ccc(-c3ccc4c(c3)OCO4)cc2)cc1
46 nM | 340 nM | CCCCCc1ccc(C(=O)N(CCN(CCCC)CCCC)Cc2ccc(-c3ccc(CC(=O)NCc4ccccc4)cc3)cc2)cc1
143 nM | 2440 nM | CCCCCc1ccc(C(=O)N(CCN(CCCC)CCCC)Cc2ccc(-c3ccccc3)cc2)cc1
463 nM | 7150 nM | CCCCCc1ccc(C(=O)N(CCN(CCCC)CCCC)Cc2ccc(-c3ccc(CC(=O)O)cc3)cc2)cc1
511 nM | 3660 nM | CCCCCc1ccc(C(=O)N(CCN(CCCC)CCCC)Cc2ccc(-c3ccc(OCCO)cc3)cc2)cc1

IC50 (Plasmepsin II) | IC50 (Plasmodium falciparum) | SMILES
464 nM | 550 nM | CCCCCc1ccc(C(=O)N(CCN(CCCC)CCCC)Cc2ccc(NC(=O)C3CCNCC3)cc2)cc1
374 nM | 273 nM | CCCCCc1ccc(C(=O)N(CCN(CCCC)CCCC)Cc2ccc(-c3cccnc3)cc2)cc1
200 nM | 1280 nM | CCCCCc1ccc(C(=O)N(CCN(CCCC)CCCC)Cc2ccc(N3CCN(c4ccccc4)CC3)cc2)cc1
334 nM | – | CCCCCc1ccc(C(=O)N(CCN2CCCCC2)Cc2ccc(-c3ccc4c(c3)OCO4)cc2)cc1
369 nM | 628 nM | CCCCCc1ccc(C(=O)N(CCN(CCCC)CCCC)Cc2ccc(N3CCCCC3)cc2)cc1
101 nM | 1200 nM | CCCCCc1ccc(C(=O)N(CCN(CCCC)CCCC)Cc2ccc(-c3ccc4c(c3)OCO4)cc2)cc1
6 nM | 1.8 nM | CCCCCc1ccc(C(=O)N(Cc2ccc(-c3ccc(CC(=O)OC)cc3)cc2)C2CCN(CCC(C)C)CC2)cc1
190 nM | – | CCCCCc1ccc(C(=O)N(CCN2CCC(Cc3ccccc3)CC2)Cc2ccc(-c3ccc4c(c3)OCO4)cc2)cc1
224 nM | 539 nM | CCCCCc1ccc(C(=O)N(CCN(CCCC)CCCC)Cc2ccc(Nc3ccccc3)cc2)cc1
289 nM | 609 nM | CCCCCc1ccc(C(=O)N(CCN(CCCC)CCCC)Cc2ccc(N(C)Cc3ccccc3)cc2)cc1
165 nM | – | CCCCCc1ccc(C(=O)N(CCN2CCC(CCCc3ccccc3)CC2)Cc2ccc(-c3ccc4c(c3)OCO4)cc2)cc1
212 nM | 583 nM | CCCCCc1ccc(C(=O)N(CCN(CCCC)CCCC)Cc2ccc(-c3ccncc3)cc2)cc1
202 nM | 376 nM | CCCCCc1ccc(C(=O)N(CCN(CCCC)CCCC)Cc2ccc(NC(=O)C3CCCNC3)cc2)cc1 (centres undefined)
72 nM | 566 nM | CCCCCc1ccc(C(=O)N(CCN(CCCC)CCCC)Cc2ccc(-c3ccc(C(=O)NCc4ccccc4)cc3)cc2)cc1
91 nM | 725 nM | CCCCCc1ccc(C(=O)N(CCN(CCCC)CCCC)Cc2ccc(-c3ccc(CC(=O)N(C)Cc4ccccc4)cc3)cc2)cc1
154 nM | 623 nM | CCCCCc1ccc(C(=O)N(CCN(CCCC)CCCC)Cc2ccc(NC(=O)c3ccnc(OC)c3)cc2)cc1
